# Like-named read-outs stand apart in the source and are kept apart here.
# Experiments:
# [1] = test system: glyphosate resistant Conyza canadensis (L.) (ERICA), horseweed; experiment: Postemergence herbicide evaluation, growth of Conyza canadensis (ERICA); format: in vivo; details: Erigeron canadensis, post-emergence, percent reduction in plant size vs untreated control, read-out: Ave. ERICA; for pest or weed control at 280 g/ha: 280 g ae/ha; for pest or weed control at 560 g/ha: 560 g ae/ha
# [2] = test system: Amaranthus rudis (AMATA), tall water hemp; experiment: Postemergence herbicide evaluation, growth of Amaranthus rudis (AMATA); format: in vivo; details: Amaranthus tuberculatus, post-emergence, percent reduction in plant size vs untreated control, read-out: Ave. AMATA; for pest or weed control at 280 g/ha: 280 g ae/ha; for pest or weed control at 560 g/ha: 560 g ae/ha
# [3] = test system: Chenopodium album (CHEAL), common lambsquarters; experiment: Postemergence herbicide evaluation, growth of Chenopodium album (CHEAL); format: in vivo; details: Chenopodium album, post-emergence, percent reduction in plant size vs untreated control, read-out: Ave. CHEAL; for pest or weed control at 280 g/ha: 280 g ae/ha; for pest or weed control at 560 g/ha: 560 g ae/ha
# [4] = test system: weeds ABUTH, AMATA, AMBEL, CHEAL, ERICA; experiment: Postemergence herbicide evaluation, overall average % weed control across ABUTH, AMATA, AMBEL, CHEAL and ERICA; format: in vivo; details: post-emergence, average over five weeds, read-out: Overall Ave % Weed Control; for pest or weed control at 280 g/ha: 280 g ae/ha; for pest or weed control at 560 g/ha: 560 g ae/ha
# [5] = Volatility of compounds measured by thermogravimetric analysis (TGA); format: physicochemical
# [6] = test system: Ambrosia artemisiifolia (AMBEL), common ragweed; experiment: Postemergence herbicide evaluation, growth of Ambrosia artemisiifolia (AMBEL); format: in vivo; details: Ambrosia artemisiifolia, post-emergence, percent reduction in plant size vs untreated control, read-out: AVE. AMBEL; for pest or weed control at 280 g/ha: 280 g ae/ha; for pest or weed control at 560 g/ha: 560 g ae/ha
# [7] = test system: Abutilon theophrasti (ABUTH), velvetleaf; experiment: Postemergence herbicide evaluation, growth of Abutilon theophrasti (ABUTH); format: in vivo; details: Abutilon theophrasti, post-emergence, percent reduction in plant size vs untreated control, read-out: AVE. ABUTH; for pest or weed control at 280 g/ha: 280 g ae/ha; for pest or weed control at 560 g/ha: 560 g ae/ha
smiles,measurement,setting,value
COc1ccc(CONC(=O)COc2ccc(Cl)cc2Cl)cc1 [Compound D20],pest or weed control at 280 g/ha,"[1]; 168 h, 7 DAA",72.5%
same,pest or weed control at 560 g/ha,"[1]; 168 h, 7 DAA",82.5%
same,pest or weed control at 280 g/ha,"[1]; 336 h, 14 DAA",99.5%
same,pest or weed control at 560 g/ha,"[1]; 336 h, 14 DAA",98.5%
same,pest or weed control at 280 g/ha,"[1]; 504 h, 21 DAA",96%
same,pest or weed control at 560 g/ha,"[1]; 504 h, 21 DAA",96%
same,pest or weed control at 280 g/ha,"[2]; 168 h, 7 DAA",72.5%
same,pest or weed control at 560 g/ha,"[2]; 168 h, 7 DAA",77.5%
same,pest or weed control at 280 g/ha,"[2]; 336 h, 14 DAA",97.5%
same,pest or weed control at 560 g/ha,"[2]; 336 h, 14 DAA",96%
same,pest or weed control at 280 g/ha,"[2]; 504 h, 21 DAA",57.5%
same,pest or weed control at 280 g/ha,"[3]; 168 h, 7 DAA",85%
same,pest or weed control at 560 g/ha,"[3]; 168 h, 7 DAA",82.5%
same,pest or weed control at 280 g/ha,"[3]; 336 h, 14 DAA",87.5%
same,pest or weed control at 560 g/ha,"[3]; 336 h, 14 DAA",94.5%
same,pest or weed control at 280 g/ha,"[3]; 504 h, 21 DAA",99%
same,pest or weed control at 560 g/ha,"[3]; 504 h, 21 DAA",95%
same,pest or weed control at 280 g/ha,"[4]; 168 h, 7 DAA",77.5%
same,pest or weed control at 560 g/ha,"[4]; 168 h, 7 DAA",75%
same,pest or weed control at 280 g/ha,"[4]; 336 h, 14 DAA",88.9%
same,pest or weed control at 560 g/ha,"[4]; 336 h, 14 DAA",90.3%
same,pest or weed control at 280 g/ha,"[4]; 504 h, 21 DAA",90.2%
same,pest or weed control at 560 g/ha,"[4]; 504 h, 21 DAA",91.2%
same,"TGA Data (rate of weight loss, volatility)",[5],0.0112 µg/min
same,pest or weed control at 280 g/ha,"[6]; 168 h, 7 DAA",80%
same,pest or weed control at 560 g/ha,"[6]; 168 h, 7 DAA",77.5%
same,pest or weed control at 280 g/ha,"[6]; 336 h, 14 DAA",70%
same,pest or weed control at 280 g/ha,"[6]; 504 h, 21 DAA",100%
same,pest or weed control at 560 g/ha,"[6]; 504 h, 21 DAA",100%
same,pest or weed control at 280 g/ha,"[7]; 168 h, 7 DAA",77.5%
same,pest or weed control at 560 g/ha,"[7]; 168 h, 7 DAA",55%
same,pest or weed control at 280 g/ha,"[7]; 336 h, 14 DAA",90%
same,pest or weed control at 560 g/ha,"[7]; 336 h, 14 DAA",67.5%
same,pest or weed control at 280 g/ha,"[7]; 504 h, 21 DAA",98.5%
same,pest or weed control at 560 g/ha,"[7]; 504 h, 21 DAA",80%
O=C(COc1ccc(Cl)cc1Cl)NOCc1ccc(Cl)cc1 [Compound D16],pest or weed control at 280 g/ha,"[1]; 168 h, 7 DAA",72.5%
same,pest or weed control at 560 g/ha,"[1]; 168 h, 7 DAA",80%
same,pest or weed control at 280 g/ha,"[1]; 336 h, 14 DAA",92.5%
same,pest or weed control at 560 g/ha,"[1]; 336 h, 14 DAA",97.5%
same,pest or weed control at 280 g/ha,"[1]; 504 h, 21 DAA",100%
same,pest or weed control at 560 g/ha,"[1]; 504 h, 21 DAA",99%
same,pest or weed control at 280 g/ha,"[2]; 168 h, 7 DAA",75%
same,pest or weed control at 560 g/ha,"[2]; 168 h, 7 DAA",75%
same,pest or weed control at 280 g/ha,"[2]; 336 h, 14 DAA",92.5%
same,pest or weed control at 560 g/ha,"[2]; 336 h, 14 DAA",92.5%
same,pest or weed control at 280 g/ha,"[2]; 504 h, 21 DAA",85%
same,pest or weed control at 560 g/ha,"[2]; 504 h, 21 DAA",92.5%
same,pest or weed control at 280 g/ha,"[3]; 168 h, 7 DAA",80%
same,pest or weed control at 560 g/ha,"[3]; 168 h, 7 DAA",82.5%
same,pest or weed control at 280 g/ha,"[3]; 336 h, 14 DAA",94%
same,pest or weed control at 560 g/ha,"[3]; 336 h, 14 DAA",92.5%
same,pest or weed control at 280 g/ha,"[3]; 504 h, 21 DAA",97.5%
same,pest or weed control at 560 g/ha,"[3]; 504 h, 21 DAA",100%
same,pest or weed control at 280 g/ha,"[4]; 168 h, 7 DAA",74%
same,pest or weed control at 560 g/ha,"[4]; 168 h, 7 DAA",67.5%
same,pest or weed control at 280 g/ha,"[4]; 336 h, 14 DAA",85.3%
same,pest or weed control at 560 g/ha,"[4]; 336 h, 14 DAA",81.5%
same,pest or weed control at 280 g/ha,"[4]; 504 h, 21 DAA",92.5%
same,pest or weed control at 560 g/ha,"[4]; 504 h, 21 DAA",87.3%
same,"TGA Data (rate of weight loss, volatility)",[5],0.03658 µg/min
same,pest or weed control at 280 g/ha,"[6]; 168 h, 7 DAA",77.5%
same,pest or weed control at 560 g/ha,"[6]; 168 h, 7 DAA",72.5%
same,pest or weed control at 280 g/ha,"[6]; 336 h, 14 DAA",75%
same,pest or weed control at 560 g/ha,"[6]; 336 h, 14 DAA",87.5%
same,pest or weed control at 280 g/ha,"[6]; 504 h, 21 DAA",100%
same,pest or weed control at 560 g/ha,"[6]; 504 h, 21 DAA",100%
same,pest or weed control at 280 g/ha,"[7]; 168 h, 7 DAA",65%
same,pest or weed control at 560 g/ha,"[7]; 168 h, 7 DAA",27.5%
same,pest or weed control at 280 g/ha,"[7]; 336 h, 14 DAA",72.5%
same,pest or weed control at 560 g/ha,"[7]; 336 h, 14 DAA",37.5%
same,pest or weed control at 280 g/ha,"[7]; 504 h, 21 DAA",80%
same,pest or weed control at 560 g/ha,"[7]; 504 h, 21 DAA",45%
O=C(COc1cc(Cl)cc(Cl)c1)OCCCOC(=O)COc1ccc(Cl)cc1Cl [Compound B7],pest or weed control at 280 g/ha,"[1]; 168 h, 7 DAA",82.5%
same,pest or weed control at 560 g/ha,"[1]; 168 h, 7 DAA",85%
same,pest or weed control at 280 g/ha,"[1]; 336 h, 14 DAA",70%
same,pest or weed control at 560 g/ha,"[1]; 336 h, 14 DAA",91.5%
same,pest or weed control at 280 g/ha,"[1]; 504 h, 21 DAA",99%
same,pest or weed control at 560 g/ha,"[1]; 504 h, 21 DAA",98.5%
same,pest or weed control at 280 g/ha,"[2]; 168 h, 7 DAA",57.5%
same,pest or weed control at 560 g/ha,"[2]; 168 h, 7 DAA",67.5%
same,pest or weed control at 280 g/ha,"[2]; 336 h, 14 DAA",85%
same,pest or weed control at 560 g/ha,"[2]; 336 h, 14 DAA",85%
same,pest or weed control at 280 g/ha,"[2]; 504 h, 21 DAA",70%
same,pest or weed control at 560 g/ha,"[2]; 504 h, 21 DAA",52.5%
same,pest or weed control at 280 g/ha,"[3]; 168 h, 7 DAA",82.5%
same,pest or weed control at 560 g/ha,"[3]; 168 h, 7 DAA",77.5%
same,pest or weed control at 280 g/ha,"[3]; 336 h, 14 DAA",96.5%
same,pest or weed control at 560 g/ha,"[3]; 336 h, 14 DAA",96.5%
same,pest or weed control at 280 g/ha,"[3]; 504 h, 21 DAA",90%
same,pest or weed control at 560 g/ha,"[3]; 504 h, 21 DAA",87.5%
same,pest or weed control at 280 g/ha,"[4]; 168 h, 7 DAA",61%
same,pest or weed control at 560 g/ha,"[4]; 168 h, 7 DAA",68%
same,pest or weed control at 280 g/ha,"[4]; 336 h, 14 DAA",65.3%
same,pest or weed control at 560 g/ha,"[4]; 336 h, 14 DAA",74.1%
same,pest or weed control at 280 g/ha,"[4]; 504 h, 21 DAA",70.3%
same,pest or weed control at 560 g/ha,"[4]; 504 h, 21 DAA",76.2%
same,"TGA Data (rate of weight loss, volatility)",[5],0.03572 µg/min
same,pest or weed control at 280 g/ha,"[6]; 168 h, 7 DAA",62.5%
same,pest or weed control at 560 g/ha,"[6]; 168 h, 7 DAA",72.5%
same,pest or weed control at 280 g/ha,"[6]; 336 h, 14 DAA",57.5%
same,pest or weed control at 560 g/ha,"[6]; 336 h, 14 DAA",67.5%
same,pest or weed control at 280 g/ha,"[6]; 504 h, 21 DAA",77.5%
same,pest or weed control at 560 g/ha,"[6]; 504 h, 21 DAA",100%
same,pest or weed control at 280 g/ha,"[7]; 168 h, 7 DAA",20%
same,pest or weed control at 560 g/ha,"[7]; 168 h, 7 DAA",37.5%
same,pest or weed control at 280 g/ha,"[7]; 336 h, 14 DAA",17.5%
same,pest or weed control at 560 g/ha,"[7]; 336 h, 14 DAA",30%
same,pest or weed control at 280 g/ha,"[7]; 504 h, 21 DAA",15%
same,pest or weed control at 560 g/ha,"[7]; 504 h, 21 DAA",42.5%

# From patent US20260042731A1, “(2,4-DICHLOROPHENOXY)ACETIC ACID ANALOGS” (CORTEVA AGRISCIENCE LLC, priority 2022, published 2026)
